Experiments:
in vivo = settings: C57BL/6, mouse, po, 10 mg/kg
Description: Oral bioavailability in C57BL/6 mouse at 10 mg/kg

Keap1/Nrf2 = Keap1/Nrf2 (Homo sapiens, UniProt Q14145); test: Inhibition of His-tagged human Keap1 Kelch domain /FITC-labelled-9mer Nrf2 (unknown origin) protein-protein interaction incubated for 1 hr by fluorescence polarization assay
[1] = target: Kelch-like ECH-associated protein 1 (Homo sapiens, UniProt Q14145); test: Binding affinity to biotinylated Keap1 Kelch domain (unknown origin) by SPR method
[2] = Apparent permeability in human Caco-2 cells incubated for 2 hrs by LC/MS analysis
[3] = Metabolic stability in human liver microsomes assessed as compound remaining at 5 uM measured upto 60 mins
[4] = target: Voltage-gated inwardly rectifying potassium channel KCNH2 (Homo sapiens, UniProt Q12809); test: Inhibition of human ERG by patch clamp assay; assay type: toxicity
Voltage-gated inwardly rectifying potassium channel KCNH2, sequence (Q12809 whole entry): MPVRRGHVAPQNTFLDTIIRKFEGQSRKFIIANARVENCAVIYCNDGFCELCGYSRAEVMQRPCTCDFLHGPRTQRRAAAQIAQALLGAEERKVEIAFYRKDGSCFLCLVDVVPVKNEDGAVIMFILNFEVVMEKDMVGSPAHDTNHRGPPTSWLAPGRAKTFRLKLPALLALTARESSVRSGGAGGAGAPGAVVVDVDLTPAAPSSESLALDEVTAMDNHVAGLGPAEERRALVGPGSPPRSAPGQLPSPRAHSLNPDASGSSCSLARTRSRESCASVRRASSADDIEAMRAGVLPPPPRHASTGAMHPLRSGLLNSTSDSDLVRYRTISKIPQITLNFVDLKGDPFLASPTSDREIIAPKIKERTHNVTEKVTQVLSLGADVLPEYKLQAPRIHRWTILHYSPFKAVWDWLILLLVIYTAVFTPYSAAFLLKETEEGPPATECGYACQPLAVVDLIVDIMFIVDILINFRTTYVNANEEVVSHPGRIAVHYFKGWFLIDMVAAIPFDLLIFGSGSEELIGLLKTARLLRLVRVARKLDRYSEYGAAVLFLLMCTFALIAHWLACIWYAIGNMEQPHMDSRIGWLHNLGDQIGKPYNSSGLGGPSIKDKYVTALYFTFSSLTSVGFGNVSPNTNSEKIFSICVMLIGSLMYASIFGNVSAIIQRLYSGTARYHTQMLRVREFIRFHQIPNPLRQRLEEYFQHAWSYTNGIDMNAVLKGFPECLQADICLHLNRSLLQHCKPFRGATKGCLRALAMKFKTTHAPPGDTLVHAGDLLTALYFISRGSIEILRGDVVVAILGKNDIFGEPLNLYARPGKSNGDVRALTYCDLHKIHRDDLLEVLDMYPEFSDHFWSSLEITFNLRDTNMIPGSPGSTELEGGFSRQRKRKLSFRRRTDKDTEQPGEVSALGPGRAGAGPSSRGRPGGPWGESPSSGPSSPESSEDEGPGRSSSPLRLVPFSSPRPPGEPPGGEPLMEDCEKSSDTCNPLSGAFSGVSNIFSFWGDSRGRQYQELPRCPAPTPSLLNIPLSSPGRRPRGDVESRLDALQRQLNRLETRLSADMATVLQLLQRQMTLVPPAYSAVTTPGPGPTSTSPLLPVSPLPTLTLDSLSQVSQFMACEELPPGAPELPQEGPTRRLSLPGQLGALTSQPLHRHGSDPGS

Cytochrome P450 3A4 = Cytochrome P450 3A4 (Homo sapiens, UniProt P08684); test: Inhibition of CYP3A4 in human liver microsomes; assay type: ADME, Microsome
Cytochrome P450 3A4, sequence (P08684 whole entry): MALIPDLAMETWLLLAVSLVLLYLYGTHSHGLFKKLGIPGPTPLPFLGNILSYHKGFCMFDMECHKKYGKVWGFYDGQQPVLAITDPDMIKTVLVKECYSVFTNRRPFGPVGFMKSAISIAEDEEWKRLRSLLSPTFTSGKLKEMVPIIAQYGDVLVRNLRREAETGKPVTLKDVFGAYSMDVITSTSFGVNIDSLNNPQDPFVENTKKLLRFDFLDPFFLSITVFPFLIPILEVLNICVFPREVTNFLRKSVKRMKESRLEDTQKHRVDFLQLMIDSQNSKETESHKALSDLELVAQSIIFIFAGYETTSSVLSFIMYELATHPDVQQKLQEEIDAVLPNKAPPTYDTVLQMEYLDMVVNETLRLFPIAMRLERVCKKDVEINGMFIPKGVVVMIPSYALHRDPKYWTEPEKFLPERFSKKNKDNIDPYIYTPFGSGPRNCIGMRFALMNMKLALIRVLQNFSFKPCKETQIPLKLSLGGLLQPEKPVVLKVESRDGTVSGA

Cytochrome P450 1A2 = target: T1, Cytochrome P450 1A2 (Homo sapiens, UniProt P05177); test: Inhibition of CYP1A2 in human liver microsomes; assay type: ADME, Microsome
T1 sequence (P05177 whole entry): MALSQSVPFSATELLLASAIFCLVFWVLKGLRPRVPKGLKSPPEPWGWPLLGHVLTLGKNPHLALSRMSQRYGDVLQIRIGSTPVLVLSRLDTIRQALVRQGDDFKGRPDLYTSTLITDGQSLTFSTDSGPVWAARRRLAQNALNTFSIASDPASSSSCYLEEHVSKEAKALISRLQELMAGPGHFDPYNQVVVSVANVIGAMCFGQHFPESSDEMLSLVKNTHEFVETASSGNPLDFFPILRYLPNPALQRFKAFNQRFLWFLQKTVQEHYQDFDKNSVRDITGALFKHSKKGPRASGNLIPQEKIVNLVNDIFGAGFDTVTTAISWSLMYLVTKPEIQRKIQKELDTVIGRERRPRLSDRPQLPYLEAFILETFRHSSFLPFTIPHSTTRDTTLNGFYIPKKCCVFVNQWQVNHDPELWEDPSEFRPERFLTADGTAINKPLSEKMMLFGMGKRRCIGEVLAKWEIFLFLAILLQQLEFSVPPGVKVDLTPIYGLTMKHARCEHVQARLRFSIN

Cytochrome P450 2C8 = target: T2, Cytochrome P450 2C8 (Homo sapiens, UniProt P10632); test: Inhibition of CYP2C8 in human liver microsomes; assay type: ADME, Microsome
T2 sequence (P10632 whole entry): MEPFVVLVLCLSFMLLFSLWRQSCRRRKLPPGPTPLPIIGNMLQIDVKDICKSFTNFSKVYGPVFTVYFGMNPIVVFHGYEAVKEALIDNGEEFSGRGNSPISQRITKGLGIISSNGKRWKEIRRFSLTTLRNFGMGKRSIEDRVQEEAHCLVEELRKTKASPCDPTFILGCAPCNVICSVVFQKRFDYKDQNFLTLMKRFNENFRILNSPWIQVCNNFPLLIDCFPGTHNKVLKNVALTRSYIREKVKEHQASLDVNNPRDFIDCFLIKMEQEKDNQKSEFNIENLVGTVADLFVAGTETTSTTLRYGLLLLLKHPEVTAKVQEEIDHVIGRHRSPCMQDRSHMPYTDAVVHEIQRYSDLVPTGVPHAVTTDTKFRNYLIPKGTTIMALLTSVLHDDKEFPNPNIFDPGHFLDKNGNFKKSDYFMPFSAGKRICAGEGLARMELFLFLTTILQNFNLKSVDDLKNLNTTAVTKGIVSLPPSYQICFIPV

Cytochrome P450 2C9 = Cytochrome P450 2C9 (Homo sapiens, UniProt P11712); test: Inhibition of CYP2C9 in human liver microsomes; assay type: ADME, Microsome
Cytochrome P450 2C9, sequence (P11712 whole entry): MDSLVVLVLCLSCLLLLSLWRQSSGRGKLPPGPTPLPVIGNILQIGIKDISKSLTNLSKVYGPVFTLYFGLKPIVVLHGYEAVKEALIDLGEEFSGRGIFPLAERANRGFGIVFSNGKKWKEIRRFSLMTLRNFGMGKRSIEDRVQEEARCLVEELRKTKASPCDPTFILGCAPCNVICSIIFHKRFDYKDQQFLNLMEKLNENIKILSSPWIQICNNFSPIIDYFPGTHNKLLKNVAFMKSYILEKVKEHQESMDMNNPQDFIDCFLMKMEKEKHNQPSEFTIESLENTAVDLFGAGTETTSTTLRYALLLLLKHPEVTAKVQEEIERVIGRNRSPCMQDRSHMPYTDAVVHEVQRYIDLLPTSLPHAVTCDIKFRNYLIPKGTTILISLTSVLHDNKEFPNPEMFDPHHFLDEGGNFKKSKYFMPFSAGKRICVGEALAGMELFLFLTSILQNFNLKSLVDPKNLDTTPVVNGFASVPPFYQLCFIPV

Cytochrome P450 2C19 = Cytochrome P450 2C19 (Homo sapiens, UniProt P33261); test: Inhibition of CYP2C19 in human liver microsomes; assay type: ADME, Microsome
Cytochrome P450 2C19, sequence (P33261 whole entry): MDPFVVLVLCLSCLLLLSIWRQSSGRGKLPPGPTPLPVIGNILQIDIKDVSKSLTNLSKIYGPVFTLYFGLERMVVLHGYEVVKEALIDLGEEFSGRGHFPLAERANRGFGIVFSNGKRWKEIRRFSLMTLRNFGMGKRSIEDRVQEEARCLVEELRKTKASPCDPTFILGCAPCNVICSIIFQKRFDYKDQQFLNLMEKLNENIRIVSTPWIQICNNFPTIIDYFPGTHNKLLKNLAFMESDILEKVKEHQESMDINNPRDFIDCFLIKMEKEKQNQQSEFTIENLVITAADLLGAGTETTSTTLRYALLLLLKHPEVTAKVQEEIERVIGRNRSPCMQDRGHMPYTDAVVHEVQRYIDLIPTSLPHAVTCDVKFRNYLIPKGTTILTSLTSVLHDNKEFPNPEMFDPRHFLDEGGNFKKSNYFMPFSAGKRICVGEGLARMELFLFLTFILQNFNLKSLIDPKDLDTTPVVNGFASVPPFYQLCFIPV

Cytochrome P450 2D6 = Cytochrome P450 2D6 (Homo sapiens, UniProt P10635); test: Inhibition of CYP2D6 in human liver microsomes; assay type: ADME, Microsome
Cytochrome P450 2D6, sequence (P10635 whole entry): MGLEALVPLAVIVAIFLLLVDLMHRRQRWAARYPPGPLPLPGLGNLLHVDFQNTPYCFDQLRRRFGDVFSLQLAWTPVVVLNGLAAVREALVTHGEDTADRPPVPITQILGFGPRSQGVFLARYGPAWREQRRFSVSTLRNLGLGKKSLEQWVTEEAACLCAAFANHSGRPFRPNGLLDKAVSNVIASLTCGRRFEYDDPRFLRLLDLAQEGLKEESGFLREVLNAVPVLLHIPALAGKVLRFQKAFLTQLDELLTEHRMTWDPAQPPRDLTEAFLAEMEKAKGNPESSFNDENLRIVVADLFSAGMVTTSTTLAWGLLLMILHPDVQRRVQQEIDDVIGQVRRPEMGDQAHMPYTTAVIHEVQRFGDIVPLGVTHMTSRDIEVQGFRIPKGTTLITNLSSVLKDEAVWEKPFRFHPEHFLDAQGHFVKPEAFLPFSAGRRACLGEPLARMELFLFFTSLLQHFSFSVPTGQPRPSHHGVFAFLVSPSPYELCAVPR

Keap1/Nrf2, sequence (Q16236 whole entry, the tested form may be a part): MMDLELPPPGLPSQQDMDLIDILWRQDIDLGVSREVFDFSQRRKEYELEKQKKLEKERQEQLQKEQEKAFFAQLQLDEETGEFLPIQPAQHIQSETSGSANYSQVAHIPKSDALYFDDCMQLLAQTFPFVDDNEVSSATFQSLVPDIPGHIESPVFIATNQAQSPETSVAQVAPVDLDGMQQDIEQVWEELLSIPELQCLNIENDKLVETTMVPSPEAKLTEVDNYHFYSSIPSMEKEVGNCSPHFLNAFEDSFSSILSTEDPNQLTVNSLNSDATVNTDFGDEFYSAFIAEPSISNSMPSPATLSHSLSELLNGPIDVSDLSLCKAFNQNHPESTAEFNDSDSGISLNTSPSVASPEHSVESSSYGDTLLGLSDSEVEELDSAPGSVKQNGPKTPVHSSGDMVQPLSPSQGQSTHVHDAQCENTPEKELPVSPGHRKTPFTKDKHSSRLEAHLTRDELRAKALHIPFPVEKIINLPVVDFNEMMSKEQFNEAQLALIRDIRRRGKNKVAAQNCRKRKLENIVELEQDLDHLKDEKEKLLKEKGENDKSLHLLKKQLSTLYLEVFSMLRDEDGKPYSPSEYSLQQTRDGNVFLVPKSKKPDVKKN
Keap1/Nrf2, sequence (Q14145 whole entry, the tested form may be a part): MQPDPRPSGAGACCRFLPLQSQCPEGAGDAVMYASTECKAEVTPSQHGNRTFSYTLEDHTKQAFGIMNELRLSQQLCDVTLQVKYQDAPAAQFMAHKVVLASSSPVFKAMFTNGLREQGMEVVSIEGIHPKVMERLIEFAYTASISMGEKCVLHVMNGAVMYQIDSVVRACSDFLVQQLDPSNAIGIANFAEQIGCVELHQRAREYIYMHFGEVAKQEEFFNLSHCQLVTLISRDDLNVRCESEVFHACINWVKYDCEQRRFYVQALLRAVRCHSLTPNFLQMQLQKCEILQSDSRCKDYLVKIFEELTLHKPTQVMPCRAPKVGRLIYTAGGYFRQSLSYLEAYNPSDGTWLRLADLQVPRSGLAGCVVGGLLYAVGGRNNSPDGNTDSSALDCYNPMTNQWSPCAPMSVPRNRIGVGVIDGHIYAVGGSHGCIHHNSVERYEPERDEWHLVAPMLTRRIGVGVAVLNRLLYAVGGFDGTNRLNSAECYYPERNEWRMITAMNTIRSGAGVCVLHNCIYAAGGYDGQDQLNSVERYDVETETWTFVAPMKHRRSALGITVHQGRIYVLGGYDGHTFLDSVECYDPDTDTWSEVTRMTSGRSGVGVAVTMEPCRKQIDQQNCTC
Kelch-like ECH-associated protein 1, sequence (Q14145 whole entry, the tested form may be a part): as above

Row | Compound | IC50 (Keap1/Nrf2) [µM] | Papp at 2 h [2] [×10⁻⁶ cm/s] | remaining at 1 h, 5 µM [3] [%] | also measured
1 | COc1ccc(S(=O)(=O)Nc2ccc(N(CC(=O)N3CCSC3=O)S(=O)(=O)c3ccc(OC)cc3)c3ccccc23)cc1 |  |  |  | bioavailability (in vivo): 68%
2 | Cc1ccc(CC(=O)N[C@H](c2ccc(C)c(OCC3CCCCC3)c2)[C@@H](C)C(=O)O)cc1 | 10 | 17 |  | 
3 | Cc1ccc([C@@H](NC(=O)[C@@H](F)c2ccc(Cl)cc2)[C@@H](C)C(=O)O)cc1OCC(C)(C)C#N |  |  |  | IC50 [4]: > 30 µM; IC50 (Cytochrome P450 3A4): > 10 µM; IC50 (Cytochrome P450 1A2): > 10 µM; IC50 (Cytochrome P450 2C8): > 10 µM; IC50 (Cytochrome P450 2C9): 6.2 µM; IC50 (Cytochrome P450 2C19): > 10 µM; IC50 (Cytochrome P450 2D6): > 10 µM
4 | CCCOc1cc([C@@H](NC(=O)Cc2ccc(C)cc2)[C@@H](C)C(=O)O)ccc1C | 9.6 | 18 | 57 | 
5 | Cc1ccc(CC(=O)N[C@H](c2ccc(C)c(OCC(C)C)c2)[C@@H](C)C(=O)O)cc1 | 3.6 | 26 | 73 | 
6 | Cc1ccc(CC(=O)N[C@H](c2ccc(C)cc2)[C@@H](C)C(=O)O)cc1 | 20 | 8.8 | 97 | 
7 | Cc1ccc([C@@H](NC(=O)Cc2ccc(CC3CCCCC3)cc2)[C@@H](C)C(=O)O)cc1 | 8.4 | 42 | 16 | 
8 | Cc1ccc([C@@H](NC(=O)Cc2ccc(CC3CC3)cc2)[C@@H](C)C(=O)O)cc1 | 15 | 15 | 93 | 
9 | Cc1ccc(CC(=O)N[C@H](c2ccc(C)c(OCC(C)(C)O)c2)[C@@H](C)C(=O)O)cc1 | 4.2 | 0.31 | 100 | 
10 | Cc1ccc(CC(=O)N[C@H](c2ccc(C)c(OCC3CCCC3)c2)[C@@H](C)C(=O)O)cc1 | 5 | 21 |  | 
11 | Cc1ccc(CC(=O)N[C@H](c2ccc(C)c(OCc3ccccc3)c2)[C@@H](C)C(=O)O)cc1 | 13 | 21 | 74 | 
12 | CCOc1cccnc1Cc1ccc([C@H](F)C(=O)N[C@H](c2ccc(C)cc2)[C@@H](C)C(=O)O)cc1 |  |  |  | IC50 [4]: > 30 µM; IC50 (Cytochrome P450 3A4): > 10 µM; IC50 (Cytochrome P450 1A2): > 10 µM; IC50 (Cytochrome P450 2C8): > 10 µM; IC50 (Cytochrome P450 2C9): > 10 µM; IC50 (Cytochrome P450 2C19): > 10 µM; IC50 (Cytochrome P450 2D6): > 10 µM
13 | Cc1ccc([C@H](F)C(=O)N[C@H](c2ccc(C)c(OCC3(C#N)CC3)c2)[C@@H](C)C(=O)O)cc1 |  |  |  | IC50 [4]: > 30 µM; IC50 (Cytochrome P450 3A4): > 10 µM; IC50 (Cytochrome P450 1A2): > 10 µM; IC50 (Cytochrome P450 2C8): > 10 µM; IC50 (Cytochrome P450 2C9): > 10 µM; IC50 (Cytochrome P450 2C19): > 10 µM; IC50 (Cytochrome P450 2D6): > 10 µM
14 | Cc1ccc([C@@H](NC(=O)Cc2ccc(Cc3ccccc3)cc2)[C@@H](C)C(=O)O)cc1 | 2 | 24 | 79 | 

Further compounds by falling IC50 (Keap1/Nrf2), results first:

Row | IC50 (Keap1/Nrf2) [µM] | Papp at 2 h [2] [×10⁻⁶ cm/s] | remaining at 1 h, 5 µM [3] [%] | Compound | also measured
15 | 0.92 | 0.16 | 98 | Cc1ccc([C@@H](NC(=O)Cc2ccc(Cn3ccccc3=O)cc2)[C@@H](C)C(=O)O)cc1 | 
16 | 0.64 | 1.1 | 95 | Cc1ccc([C@@H](NC(=O)Cc2ccc(Cn3cccn3)cc2)[C@@H](C)C(=O)O)cc1 | 
17 | 0.36 | 5.7 | 94 | Cc1ccc([C@@H](NC(=O)Cc2ccc(Cc3ccccn3)cc2)[C@@H](C)C(=O)O)cc1.Cl | 
18 | 0.27 | 11 | 68 | Cc1ccc(CC(=O)N[C@H](c2ccc(C)c(OCC(C)(C)F)c2)[C@@H](C)C(=O)O)cc1 | 
19 | 0.26 | 33 |  | Cc1ccc([C@@H](NC(=O)[C@@H](F)c2ccc3c(c2)CCCC3)[C@@H](C)C(=O)O)cc1 | Kd [1]: 0.13 µM
20 | 0.22 | 5.4 | 92 | Cc1ccc([C@@H](NC(=O)Cc2ccc(Cc3cc(C)ccn3)cc2)[C@@H](C)C(=O)O)cc1.Cl | 
21 | 0.2 | 5.4 | 97 | Cc1ccc([C@@H](NC(=O)Cc2ccc(Cc3ccc(C)cn3)cc2)[C@@H](C)C(=O)O)cc1.Cl | 
22 | 0.17 | 2 | 94 | Cc1ccc([C@@H](NC(=O)Cc2ccc(Cc3cccc(C)n3)cc2)[C@@H](C)C(=O)O)cc1.Cl | 
23 | 0.14 | 11 | 93 | Cc1ccc([C@@H](NC(=O)Cc2ccc(Cc3ncccc3C)cc2)[C@@H](C)C(=O)O)cc1.Cl | 
24 | 0.1 | 7.1 | 91 | COc1cccnc1Cc1ccc(CC(=O)N[C@H](c2ccc(C)cc2)[C@@H](C)C(=O)O)cc1.Cl | 
25 | 0.091 | 1.2 | 90 | Cc1ccc([C@@H](NC(=O)Cc2ccc(Cl)cc2)[C@@H](C)C(=O)O)cc1OCC(C)(C)C#N | 
26 | 0.078 | 1.4 | 43 | Cc1ccc(CC(=O)N[C@H](c2ccc(C)c(OCC(C)(C)C#N)c2)[C@@H](C)C(=O)O)cc1 | 
27 | 0.05 | 0.62 | 83 | Cc1ccc(CC(=O)N[C@H](c2ccc(C)c(OCC3(C#N)CC3)c2)[C@@H](C)C(=O)O)cc1 | 
28 | 0.045 | 8.9 | 84 | CCOc1cccnc1Cc1ccc(CC(=O)N[C@H](c2ccc(C)cc2)[C@@H](C)C(=O)O)cc1 | 
